Measured values published in PubChem BioAssay AID256 (DTP/NCI, 2004).
“And” between values parts separate entries of the source, which are not always exact repeats. Equal entries are not always repeated. Inconclusive results and toxic doses are left out. How the source made its calls: active means survival T/C of 150% or more; inactive means T/C below 125% in these data.

System: CD2F1 mice, L1210 leukemia ip, survival T/C
Experiment: NCI In Vivo Anticancer Drug Screen. Data for tumor model L1210 Leukemia (intraperitoneal) in CD2F1 (CDF1) mice
Conditions: endpoint: mean survival time, vehicle: saline with Tween-80, higher = longer survival
Procedure, shortened: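 Antitumor effect is scored in animals hosting a serially transplanted tumor. Values compare compound-dosed animals against vehicle-only controls as a simple quotient.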

[1] = dose: 100.0 mg/kg/injection, schedule: Q04DX003 (ip)
[2] = dose: 400.0 mg/kg/injection, schedule: Q04DX003 (ip)
[3] = dose: 100.0 mg/kg/injection, schedule: Q01DX009 (ip)
[4] = dose: 200.0 mg/kg/injection, schedule: Q01DX009 (ip)

Measured: T/C

CC(C)(CCC(=O)c1ccccc1)C(=O)O
inactive: [1] 90 % of control | dose: 200.0 mg/kg/injection, schedule: Q04DX003 (ip) 94 % of control | [2] 87 % of control

O=Cc1ccc(N=Nc2c(S(=O)(=O)O)cc3cc(S(=O)(=O)O)cc(O)c3c2O)cc1
inactive: [3] 100 % of control | [1] 96 % of control | [4] 88 % of control | [2] 88 % of control

CCOC(=O)c1ccc(NC(=O)Nc2ccc(Nc3ccccc3)cc2)cc1
inactive: dose: 25.0 mg/kg/injection, schedule: Q04DX003 (ip) 96 % of control | dose: 50.0 mg/kg/injection, schedule: Q01DX009 (ip) 96 % of control and 102 % of control | dose: 50.0 mg/kg/injection, schedule: Q04DX003 (ip) 91 % of control | dose: 100.0 mg/kg/injection, schedule: Q01DX001 (ip) 100 % of control | [3] 96 % of control and 102 % of control | dose: 100.0 mg/kg/injection, schedule: Q04DX002 (ip) 86 % of control and 97 % of control | [1] 92 % of control | dose: 200.0 mg/kg/injection, schedule: Q01DX001 (ip) 94 % of control | [4] 95 % of control and 98 % of control | dose: 200.0 mg/kg/injection, schedule: Q04DX002 (ip) 87 % of control and 91 % of control | dose: 400.0 mg/kg/injection, schedule: Q01DX001 (ip) 103 % of control | dose: 400.0 mg/kg/injection, schedule: Q04DX002 (ip) 87 % of control
